From PubChem BioAssay AID248 (DTP/NCI, 2004)
Where “and” joins values, the source holds several entries; their conditions need not be identical. Equal values may be shown once. Inconclusive results and toxic doses are left out. Cut-off read from the data, not from the text of the source: active = T/C of 150% or more; inactive = T/C below 125%.

Test system: L1210 leukemia ip in BDF1 mice, survival T/C
Assay: NCI In Vivo Anticancer Drug Screen. Data for tumor model L1210 Leukemia (intraperitoneal) in B6D2F1 (BDF1) mice
Details: endpoint: mean survival time, higher = longer survival
Method in brief: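 In this screen, tumor-bearing mice given compound are compared to those given vehicle, and their survival values are reported as a treated-to-control quotient.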

[1] = dose: 50.0 mg/kg/injection, schedule: Q01DX009 (ip), vehicle: saline with Tween-80
[2] = dose: 100.0 mg/kg/injection, schedule: Q01DX009 (ip), vehicle: saline with Tween-80
[3] = dose: 200.0 mg/kg/injection, schedule: Q01DX009 (ip), vehicle: saline with Tween-80
[4] = dose: 100.0 mg/kg/injection, schedule: Q01DX001 (ip), vehicle: saline
[5] = dose: 400.0 mg/kg/injection, schedule: Q01DX001 (ip), vehicle: saline
[6] = dose: 100.0 mg/kg/injection, schedule: Q04DX003 (ip), vehicle: Klucel (hydroxypropylcellulose) (HPC)
[7] = dose: 200.0 mg/kg/injection, schedule: Q04DX003 (ip), vehicle: Klucel (hydroxypropylcellulose) (HPC)
[8] = dose: 400.0 mg/kg/injection, schedule: Q04DX003 (ip), vehicle: Klucel (hydroxypropylcellulose) (HPC)
[9] = dose: 50.0 mg/kg/injection, schedule: Q01DX009 (ip), vehicle: Klucel (hydroxypropylcellulose) (HPC)
[10] = dose: 100.0 mg/kg/injection, schedule: Q01DX009 (ip), vehicle: Klucel (hydroxypropylcellulose) (HPC)
[11] = dose: 200.0 mg/kg/injection, schedule: Q01DX009 (ip), vehicle: Klucel (hydroxypropylcellulose) (HPC)
[12] = dose: 100.0 mg/kg/injection, schedule: Q01DX001 (ip), vehicle: saline with Tween-80
[13] = dose: 200.0 mg/kg/injection, schedule: Q04DX003 (ip), vehicle: saline
[14] = dose: 400.0 mg/kg/injection, schedule: Q04DX003 (ip), vehicle: saline
[15] = dose: 25.0 mg/kg/injection, schedule: Q01DX009 (ip), vehicle: Klucel (hydroxypropylcellulose) (HPC)

Measured: T/C

O=C1NC(=O)C(CSCc2ccccc2)(CSCc2ccccc2)N1
inactive: [1] 94 % of control | [2] 92 % of control and 102 % of control | [3] 94 % of control and 97 % of control | dose: 400.0 mg/kg/injection, schedule: Q01DX009 (ip), vehicle: saline with Tween-80 100 % of control

CCCCCC(/C=N\Nc1nnc(N/N=C\C(=C\c2ccccc2)CCCCC)c2ccccc12)=C/c1ccccc1
inactive: dose: 50.0 mg/kg/injection, schedule: Q01DX001 (ip), vehicle: carboxymethylcellulose (CMC) 102 % of control | dose: 88.0 mg/kg/injection, schedule: Q01DX001 (ip), vehicle: carboxymethylcellulose (CMC) 98 % of control | dose: 100.0 mg/kg/injection, schedule: Q01DX001 (ip), vehicle: carboxymethylcellulose (CMC) 108 % of control | dose: 133.0 mg/kg/injection, schedule: Q01DX001 (ip), vehicle: carboxymethylcellulose (CMC) 101 % of control | dose: 200.0 mg/kg/injection, schedule: Q01DX001 (ip), vehicle: carboxymethylcellulose (CMC) 104 % of control and 114 % of control | dose: 300.0 mg/kg/injection, schedule: Q01DX001 (ip), vehicle: carboxymethylcellulose (CMC) 102 % of control and 104 % of control

O=C(N/N=C/c1ccc(Cl)cc1Cl)c1cccc2ccccc12
inactive: [4] 92 % of control | [5] 86 % of control

CCCCCCCCCCCCSC1=NS(=O)(=O)c2ccccc21
inactive: [6] 106 % of control | [7] 94 % of control | [8] 90 % of control

COc1cccc(CC(=O)C(=O)O)c1
inactive: [9] 98 % of control | [10] 90 % of control | [6] 97 % of control | [11] 95 % of control | [7] 98 % of control

O=[As](O)(CC(O)c1ccccc1)c1ccccc1 (stereo not given)
inactive: dose: 6.25 mg/kg/injection, schedule: Q01DX001 (ip), vehicle: saline with Tween-80 97 % of control | dose: 12.5 mg/kg/injection, schedule: Q01DX001 (ip), vehicle: saline with Tween-80 103 % of control

CCOC(=O)C(CCNC(=O)c1ccccc1)C(=O)OCC
inactive: [10] 103 % of control | [6] 93 % of control | [11] 91 % of control | [7] 95 % of control | dose: 400.0 mg/kg/injection, schedule: Q01DX009 (ip), vehicle: Klucel (hydroxypropylcellulose) (HPC) 89 % of control | [8] 93 % of control

N=C1C(=O)c2ccccc2-c2ccccc21
inactive: dose: 100.0 mg/kg/injection, schedule: Q01DX001 (ip), vehicle: Klucel (hydroxypropylcellulose) (HPC) 97 % of control | dose: 200.0 mg/kg/injection, schedule: Q01DX001 (ip), vehicle: Klucel (hydroxypropylcellulose) (HPC) 98 % of control | dose: 400.0 mg/kg/injection, schedule: Q01DX001 (ip), vehicle: Klucel (hydroxypropylcellulose) (HPC) 98 % of control

CSC(=O)SC
inactive: [2] 101 % of control

O=c1c(Br)c(-c2ccccc2)nc2ccccn12
inactive: dose: 25.0 mg/kg/injection, schedule: Q01DX001 (ip), vehicle: saline with Tween-80 91 % of control | dose: 50.0 mg/kg/injection, schedule: Q01DX001 (ip), vehicle: saline with Tween-80 91 % of control | [12] 95 % of control

CC1=NN(c2ccc(S(=O)(=O)O)cc2)C(=O)/C1=C/c1ccc(Cl)cc1
inactive: dose: 100.0 mg/kg/injection, schedule: Q01DX009 (ip), vehicle: saline sonified 105 % of control | dose: 200.0 mg/kg/injection, schedule: Q01DX009 (ip), vehicle: saline sonified 100 % of control | [13] 102 % of control | dose: 400.0 mg/kg/injection, schedule: Q01DX009 (ip), vehicle: saline sonified 104 % of control | [14] 98 % of control

C1CCCCCC(N2CCCC2)CCCCC1
inactive: dose: 6.0 mg/kg/injection, schedule: Q01DX009 (ip), vehicle: saline 107 % of control | dose: 12.0 mg/kg/injection, schedule: Q01DX009 (ip), vehicle: saline 102 % of control | dose: 12.5 mg/kg/injection, schedule: Q04DX003 (ip), vehicle: saline 100 % of control | dose: 25.0 mg/kg/injection, schedule: Q01DX009 (ip), vehicle: saline 100 % of control | dose: 25.0 mg/kg/injection, schedule: Q04DX003 (ip), vehicle: saline 95 % of control

CC(C)(C)c1ccc(N)c([N+](=O)[O-])c1
inactive: [1] 102 % of control | [2] 87 % of control | [3] 102 % of control

CCOC(=O)C(CC1OCCO1)C1=NC(C)(C)CC(C)O1 (stereo not given)
inactive: dose: 100.0 mg/kg/injection, schedule: Q01DX009 (ip), vehicle: saline 96 % of control | dose: 100.0 mg/kg/injection, schedule: Q04DX003 (ip), vehicle: saline 106 % of control | dose: 200.0 mg/kg/injection, schedule: Q01DX009 (ip), vehicle: saline 100 % of control | [13] 92 % of control | dose: 400.0 mg/kg/injection, schedule: Q01DX009 (ip), vehicle: saline 96 % of control | [14] 92 % of control

Cc1cc(C)c(NC(=O)c2c(Br)c(Br)c(Br)c(Br)c2C(=O)O)c(C)c1
inactive: dose: 100.0 mg/kg/injection, schedule: Q04DX002 (ip), vehicle: Klucel (hydroxypropylcellulose) (HPC) 101 % of control | dose: 200.0 mg/kg/injection, schedule: Q04DX002 (ip), vehicle: Klucel (hydroxypropylcellulose) (HPC) 111 % of control | dose: 400.0 mg/kg/injection, schedule: Q04DX002 (ip), vehicle: Klucel (hydroxypropylcellulose) (HPC) 87 % of control

CNC(=O)Nc1cc2ccccc2o1
inactive: dose: 100.0 mg/kg/injection, schedule: Q04DX003 (ip), vehicle: saline with Tween-80 101 % of control | dose: 200.0 mg/kg/injection, schedule: Q04DX003 (ip), vehicle: saline with Tween-80 92 % of control | dose: 400.0 mg/kg/injection, schedule: Q04DX003 (ip), vehicle: saline with Tween-80 92 % of control

CSc1nnc(C)c(=O)[nH]1
inactive: [12] 100 % of control | dose: 200.0 mg/kg/injection, schedule: Q01DX001 (ip), vehicle: saline with Tween-80 102 % of control | dose: 400.0 mg/kg/injection, schedule: Q01DX001 (ip), vehicle: saline with Tween-80 97 % of control

CCOC(=O)CNC(=O)Oc1ccc2c(C)cc(=O)oc2c1
inactive: dose: 25.0 mg/kg/injection, schedule: Q01DX009 (ip), vehicle: carboxymethylcellulose (CMC) 100 % of control and 106 % of control | dose: 50.0 mg/kg/injection, schedule: Q01DX009 (ip), vehicle: carboxymethylcellulose (CMC) 98 % of control and 100 % of control | dose: 100.0 mg/kg/injection, schedule: Q01DX009 (ip), vehicle: carboxymethylcellulose (CMC) 93 % of control and 97 % of control | dose: 100.0 mg/kg/injection, schedule: Q04DX002 (ip), vehicle: carboxymethylcellulose (CMC) 98 % of control and 102 % of control | dose: 100.0 mg/kg/injection, schedule: Q04DX003 (ip), vehicle: carboxymethylcellulose (CMC) 92 % of control and 90 % of control | dose: 200.0 mg/kg/injection, schedule: Q01DX009 (ip), vehicle: carboxymethylcellulose (CMC) 100 % of control | dose: 200.0 mg/kg/injection, schedule: Q04DX002 (ip), vehicle: carboxymethylcellulose (CMC) 93 % of control and 97 % of control | dose: 200.0 mg/kg/injection, schedule: Q04DX003 (ip), vehicle: carboxymethylcellulose (CMC) 92 % of control and 87 % of control | dose: 400.0 mg/kg/injection, schedule: Q04DX002 (ip), vehicle: carboxymethylcellulose (CMC) 104 % of control and 105 % of control | dose: 400.0 mg/kg/injection, schedule: Q04DX003 (ip), vehicle: carboxymethylcellulose (CMC) 94 % of control and 101 % of control

CN(N)P(=S)(c1ccccc1)N(C)N
inactive: dose: 6.25 mg/kg/injection, schedule: Q01DX009 (ip), vehicle: Klucel (hydroxypropylcellulose) (HPC) 97 % of control | dose: 12.5 mg/kg/injection, schedule: Q01DX009 (ip), vehicle: Klucel (hydroxypropylcellulose) (HPC) 100 % of control | dose: 12.5 mg/kg/injection, schedule: Q04DX003 (ip), vehicle: Klucel (hydroxypropylcellulose) (HPC) 97 % of control | [15] 94 % of control | dose: 25.0 mg/kg/injection, schedule: Q04DX003 (ip), vehicle: Klucel (hydroxypropylcellulose) (HPC) 92 % of control

O=C(NC(CSC(c1ccccc1)c1ccccc1)C(=O)O)OCc1ccccc1 (stereo not given)
inactive: [15] 103 % of control | [9] 100 % of control | [10] 100 % of control and 88 % of control | [6] 93 % of control | [7] 95 % of control | [8] 89 % of control

CC(=O)OS(C)(=O)=O
inactive: [9] 100 % of control | [10] 100 % of control | [6] 105 % of control

COCCOC(N)=O
inactive: [4] 105 % of control | dose: 200.0 mg/kg/injection, schedule: Q01DX001 (ip), vehicle: saline 115 % of control | [5] 95 % of control
